In ChEMBL document CHEMBL1140907, “Derivatives of 5-nitro-furan-2-carboxylic acid carbamoylmethyl ester inhibit RNase H activity associated with HIV-1 reverse transcriptase” (J Med Chem, 2009):
Blank lines part the entries; values can stand above or below the compound they belong to. The source made the active and inactive calls. The rule behind the calls is not given here.

How the values were obtained:
[1] = biological target: Human immunodeficiency virus type 1 reverse transcriptase (Human immunodeficiency virus 1) (UniProt Q72547); assay: (§1) Inhibition of HIV1 LAI clade B reverse transcriptase RNase H activity by real time monitoring assay
[2] = biological target: T1, Human immunodeficiency virus type 1 reverse transcriptase (Human immunodeficiency virus 1, UniProt Q72547); assay: as §1
[3] = biological target: T1, Human immunodeficiency virus type 1 reverse transcriptase; assay: Inhibition of HIV1 LAI clade C 93IN101 reverse transcriptase RNase H activity by real time monitoring assay
[4] = biological target: T1, Human immunodeficiency virus type 1 reverse transcriptase; assay: Inhibition of HIV1 LAI CRF01 A_E s93JP-NH1 reverse transcriptase RNase H activity by real time monitoring assay; design: species or system 93JP-NH1
[5] = Inhibition of murine leukemia virus reverse transcriptase by real time monitoring assay
Escherichia coli = assay: Inhibition of Escherichia coli RNase H by real time monitoring assay
[6] = biological target: T2, Ribonuclease H1 (Homo sapiens) (UniProt O60930); assay: Inhibition of human RNase H1 by real time monitoring assay
T2 sequence (whole entry): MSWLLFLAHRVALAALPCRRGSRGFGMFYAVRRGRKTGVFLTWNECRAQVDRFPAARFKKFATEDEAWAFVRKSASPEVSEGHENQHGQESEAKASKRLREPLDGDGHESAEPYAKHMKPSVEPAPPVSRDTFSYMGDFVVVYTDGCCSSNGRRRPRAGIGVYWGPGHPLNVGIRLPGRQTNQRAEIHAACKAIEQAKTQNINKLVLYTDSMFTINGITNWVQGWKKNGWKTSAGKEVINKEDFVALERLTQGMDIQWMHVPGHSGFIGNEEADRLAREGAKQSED

[7] = biological target: Human immunodeficiency virus type 1 integrase (Human immunodeficiency virus 1) (UniProt Q7ZJM1); assay: Inhibition of HIV1 integrase by real time monitoring assay
[8] = Cytotoxicity against CD4-CXCR4 expressing human NP2 cells at >25 uM by MTT assay; assay type: cell-based
[9] = Cytotoxicity against T cells at >25 uM by MTT assay; assay type: cell-based; conditions: t-cell
[10] = Cytotoxicity against IL2 and anti-CD3-stimulated CD4 expressing primary T cells at 25 to 30 uM by MTT assay; assay type: cell-based; conditions: t-cell
[11] = system: Human immunodeficiency virus 1; assay: Inhibition of HIV1 NL4-3 replication in CD4-CXCR4 expressing human NP2 cells assessed as decrease in p24 antigen production after 4 days by ELISA; conditions: Human immunodeficiency virus 1, NL4-3, NP2, 96 h
[12] = system: Human immunodeficiency virus 1; assay: Inhibition of HIV1 NL4-3 replication in CD4 expressing human T cells assessed as decrease in p24 antigen production at 25 uM after 4 days by ELISA; assay type: functional, organism-based; conditions: T-cell

Human immunodeficiency virus type 1 integrase (Human immunodeficiency virus 1), sequence (Q7ZJM1 as listed by the source): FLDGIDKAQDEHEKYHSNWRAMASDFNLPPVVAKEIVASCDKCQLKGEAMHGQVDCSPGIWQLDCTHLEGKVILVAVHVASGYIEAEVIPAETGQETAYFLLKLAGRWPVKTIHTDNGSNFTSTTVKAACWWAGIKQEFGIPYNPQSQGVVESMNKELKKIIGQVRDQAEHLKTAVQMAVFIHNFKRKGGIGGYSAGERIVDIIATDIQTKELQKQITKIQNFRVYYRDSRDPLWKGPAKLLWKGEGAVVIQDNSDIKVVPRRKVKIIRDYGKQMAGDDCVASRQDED

Activity [1]: Active
Compound: CN(C)S(=O)(=O)c1cccc(NC(=O)COC(=O)c2ccc([N+](=O)[O-])o2)c1

Activity [1]: inactive
Compound: CCOC(=O)c1c(-c2cccs2)csc1NC(=O)COC(=O)c1ccc([N+](=O)[O-])o1

Activity [1]: Active
Compound: Cc1ccc(NC(=O)COC(=O)c2ccc([N+](=O)[O-])o2)cc1S(=O)(=O)N1CCCCCC1

Activity [1]: Active
Compound: O=C(COC(=O)c1ccc([N+](=O)[O-])o1)Nc1cc(C(F)(F)F)cc(C(F)(F)F)c1

IC50 [2]: 29.6 µM | IC50 [3]: 26.5 µM | IC50 [4]: 3.8 µM | IC50 [5]: 8.4 µM | Activity (Escherichia coli): inactive | Activity [6]: inactive | Activity [7]: inactive
Compound: O=C(COC(=O)c1ccc([N+](=O)[O-])o1)NC12CC3CC(CC(C3)C1)C2
Activity [8]: 50% | Activity [9]: 50% | Activity [10]: 50%

Compound: O=C(COC(=O)c1cncc(Br)c1)NC12CC3CC(CC(C3)C1)C2
Activity [1]: inactive

Activity [1]: inactive
Compound: CCOC(=O)c1sc(N(Cc2ccccc2)C(=O)COC(=O)c2ccc([N+](=O)[O-])o2)nc1C

Activity [1]: inactive
Compound: O=C(COC(=O)c1ccccn1)NC12CC3CC(CC(C3)C1)C2

Activity [1]: inactive
Compound: CCOC(=O)c1c(NC(=O)COC(=O)c2ccc([N+](=O)[O-])o2)sc(C)c1C

Activity [1]: inactive
Compound: O=C(COC(=O)c1ccc([N+](=O)[O-])o1)Nc1ccc(F)cc1F

Activity [1]: Active
Compound: O=C(COC(=O)c1ccc([N+](=O)[O-])o1)Nc1ccc(Cl)c(S(=O)(=O)N2CCOCC2)c1

Activity [1]: inactive
Compound: O=C(COC(=O)c1ccc([N+](=O)[O-])o1)Nc1ccccc1F

Activity [1]: inactive
Compound: CCOc1cc(N2CCOCC2)cc(OCC)c1NC(=O)COC(=O)c1ccc([N+](=O)[O-])o1

Activity [1]: Active
Compound: O=C(COC(=O)c1ccc([N+](=O)[O-])o1)Nc1ncc(C(F)(F)F)cc1Cl

Activity [1]: inactive
Compound: O=C1CCC(C(=O)OCC(=O)NC23CC4CC(CC(C4)C2)C3)N1 (centres undefined)

IC50 [2]: 26.7 µM | IC50 [3]: 32.2 µM | IC50 [4]: 2.6 µM | IC50 [5]: 8.6 µM | Activity (Escherichia coli): inactive | Activity [7]: inactive | IC50 [11]: 22.7 µM
Compound: O=C(OCC(=O)N(CC1CCCO1)c1nc(-c2ccc(Br)cc2)cs1)c1ccc([N+](=O)[O-])o1 (centres undefined)
Activity [8]: 50% | Activity [9]: 50% | Activity [10]: 50% | Activity [12]: Active

Activity [1]: inactive
Compound: O=C(COC(=O)c1cccnc1Cl)NC12CC3CC(CC(C3)C1)C2

Activity [1]: Active
Compound: O=C(COC(=O)c1ccc([N+](=O)[O-])o1)Nc1nc2ccccc2s1

Activity [1]: inactive
Compound: O=C(COC(=O)c1ccc[nH]1)NC12CC3CC(CC(C3)C1)C2

Activity [1]: inactive
Compound: Cc1ccc(NC(=O)COC(=O)c2ccc([N+](=O)[O-])o2)cc1
